# According to patent publication US6482609B1, “Isolated human EDG-4 receptor and polynucletide encoding said receptor” (priority 1997, dated 2002):
# Entries after “also recorded” stand apart in the source; their conditions may differ.
# Tests used:
# human EDG-3 = biological target: T1, human EDG-3 (Homo sapiens, UniProt Q99500); assay: Calcium microfluorimetry in 293-EBNA cells, EDG-3; type: cell-based; details: EDG-3 transfected cells; 2 μM S1P
# T1 construct: expressed in transfected cells; host or cells: 293-EBNA
# T1 sequence (Q99500 whole entry): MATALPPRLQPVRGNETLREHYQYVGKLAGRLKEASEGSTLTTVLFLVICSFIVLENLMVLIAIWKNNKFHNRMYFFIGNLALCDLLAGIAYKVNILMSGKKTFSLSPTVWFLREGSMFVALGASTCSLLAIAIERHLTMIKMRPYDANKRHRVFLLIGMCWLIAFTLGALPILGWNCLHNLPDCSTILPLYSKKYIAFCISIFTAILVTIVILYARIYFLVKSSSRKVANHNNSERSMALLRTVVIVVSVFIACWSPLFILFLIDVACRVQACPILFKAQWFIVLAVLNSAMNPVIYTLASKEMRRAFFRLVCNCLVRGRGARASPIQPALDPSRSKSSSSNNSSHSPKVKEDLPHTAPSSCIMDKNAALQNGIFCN
# Procedure: (§1) Transfections were carried out with EDG receptors in 293-EBNA cells as described above, except that no reporter gene vector was included in the DNA mix. Two days after transfection, cells were harvested by trypsinization and plated at a density of 200,000 cells onto poly-D-lysine-coated coverslips in 100 μl of medium containing 0.5% FBS. After briefly allowing cell attachment to take place, 2 ml of medium without FBS was added and the cells were incubated overnight. The next day, cells were loaded with 5 μM fura-2 AM ester (Molecular Probes) for 60 min at RT, then washed and used for calcium microfluorimetry. […] Treatments were applied using a gravity-fed perfusion apparatus. Fluorescence emission was continuously monitored and recorded with PTI 2.060a software and analyzed with Sigma Plot software. Intracellular calcium concentrations were calculated by interpolation on a ratiometric fluorescence curve generated from fura-2 fluorescence in a calcium dilution series.
# EDG-7 [1] = assay: Calcium microfluorimetry in 293-EBNA cells, EDG-7; type: cell-based; details: 2 and 10 μM, preliminary data
# Procedure: as §1
# rat edg4 [2] = biological target: T2, rat edg4 (Rattus norvegicus, UniProt P47752); assay: IL-8 ELISA on COS-1 cells transiently transfected with rat EDG-4; type: cell-based; parameters: expressed in transfected cells
# T2 sequence (P47752 whole entry): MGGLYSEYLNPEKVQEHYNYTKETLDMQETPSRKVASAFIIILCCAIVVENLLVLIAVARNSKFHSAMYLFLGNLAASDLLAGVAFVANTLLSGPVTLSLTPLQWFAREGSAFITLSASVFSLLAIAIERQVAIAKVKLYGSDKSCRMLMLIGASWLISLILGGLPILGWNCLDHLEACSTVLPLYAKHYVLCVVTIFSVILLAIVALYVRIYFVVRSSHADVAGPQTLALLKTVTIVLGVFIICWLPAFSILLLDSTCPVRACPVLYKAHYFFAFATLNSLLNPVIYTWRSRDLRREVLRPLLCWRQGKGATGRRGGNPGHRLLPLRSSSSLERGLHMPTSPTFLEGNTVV
# Procedure: A. DEAE/Dextran Cell Suspension Transient Transfection.
# Transfection was done as described in Anal Biochem 218:460 (1994).
# 1) 6 ml RSC was added to 4-50 ml tubes. The following amounts of DNA were added:
# 3) 1.5 ml COS-1 cell suspension (5.5×10^6 cells total) in RSC was added to each tube and incubated for 105 min in 37° C. incubator. Tubes were mixed every 20 min.
# 4) Following incubation, tubes were spun for 5 min, cell pellets were washed with DMEM/F12+10% FBS once and then resuspended in 10 ml media. Cells were plated in 24-well plates at 0.2×10^6 cells/well.
# 500 μl treatment volume was used. Supernatants were microfuged at 14,000 rpm for 10 min., transferred to new eppendorf tubes and stored at −20° C. for future IL-8 ELISA determination.
# The procedure as outlined in Procedure for HeLa Cells (D) was followed, using 50 μl of sample per ELISA determination in duplicate.
# EDG-1 [3] = biological target: T3, EDG-1 (Homo sapiens, UniProt P21453); assay: SRE luciferase reporter (2XSREtk-p4Luc-zeo) in 293-EBNA cells, EDG-1; type: cell-based; parameters: expressed in transfected cells; host or cells: 293-EBNA; details: 3 μM, 6 hours
# T3 sequence (P21453 whole entry): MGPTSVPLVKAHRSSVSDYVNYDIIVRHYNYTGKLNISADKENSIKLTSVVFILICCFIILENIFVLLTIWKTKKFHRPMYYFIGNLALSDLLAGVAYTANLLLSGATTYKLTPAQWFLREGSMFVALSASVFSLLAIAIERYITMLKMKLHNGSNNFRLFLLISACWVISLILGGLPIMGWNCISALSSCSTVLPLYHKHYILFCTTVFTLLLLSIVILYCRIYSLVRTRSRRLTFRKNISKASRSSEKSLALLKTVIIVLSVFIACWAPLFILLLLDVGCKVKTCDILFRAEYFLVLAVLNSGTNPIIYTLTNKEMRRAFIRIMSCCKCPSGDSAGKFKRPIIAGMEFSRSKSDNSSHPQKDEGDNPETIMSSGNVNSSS
# EDG-7 [4] = assay: NF-κB reporter, EDG-7; type: cell-based
# HeLa cells = assay: Cytotoxicity (viable cell count) in HeLa cells; type: cell-based, human; details: S1P concentrations up to 10 μM
# From the text: Follow Procedure #2 For HeLa Cells with the following exceptions: […]
# HL-60 cells [5] = assay: IL-8 ELISA on HL-60 cells; type: cell-based, human; details: 1, 6 or 24 hr, S1P or LPA up to 3 μM, TNF-α 10 ng/ml
# Procedure: Procedure for HL-60 Cells:
# Cells: HL-60 (promyelocytic, human) suspension cells
# Media: RPMI 1640 medium with 2 mM L-glutamine adjusted to contain 4.5 g/L glucose, 10 mM HEPES, and 1.0 mM sodium pyruvate+10% FBS
# 1) Cells were plated at a density of 0.25×10^6 cells/ml.
# 2) Cell pellcts were resuspended in 0.5% FBS media at a density of approximately 1×10^6 cells/ml.
# 1) Made up all required solutions in 0.5% FBS media (control).
# 2) 1.4 ml appropriate treatments were added to each well of a 6-well plate.
# 5) 100 μl cell suspension was added to each well.
# 7) After the specified time cell supematants were collected into 1.5 ml eppendorf tubes, spun down at 14000 rpm for 5 minutes and stored at −20° C.
# D. Refer to Procedure #1 For HeLa Cells (D).
# EDG-1 [6] = biological target: T3, EDG-1; assay: Calcium microfluorimetry (fura-2) in 293-EBNA cells, EDG-1; type: cell-based; details: 2 and 10 μM, preliminary data
# Procedure: as §1
# HL-60 cells [7] = assay: Cytotoxicity (cell viability) in HL-60 cells; type: cell-based, human
# Procedure: For this purpose, an experiment was conducted to measure cytotoxicity in parallel with IL-8 response. […] Therefore, IL-8 production had to be robust to be observed at 6 hr, while even slight or delayed toxicity would be seen as a loss of viability at 24 hr.
# 293-EBNA cells = assay: IL-8 production in untransfected 293-EBNA cells; type: cell-based
# rat edg4 [8] = biological target: T2, rat edg4; assay: SRE luciferase reporter in 293-EBNA cells, rat EDG-4; type: cell-based; parameters: expressed in transfected cells; host or cells: 293-EBNA; details: 3 μM SPC, 6 hr
# Procedure: Transfection was accomplished using the Lipofectamine Plus kit (Life Technologies, Cat. 10964-013), using the manufacturer's recommended conditions. Optimal SRE induction was seen when cells were seeded so as to become 100% confluent at the time of treatment, 72-96 hr after transfection.
# [9] = tested on: Human Umbilical Vein Endothelial Cells (HUVEC); assay: IL-8 ELISA on primary cultured HUVEC treated with lysolipids; type: cell-based; details: 6 hr treatment
# Procedure: Plating, Pretreatment and Treatment of HUVEC
# Procedures were followed as detailed above in “Procedure #1 for HeLa Cells” with the following exceptions:
# Cells were plated at 20,000 cells/well into 24-well plates. The next day, cells were serum-starved overnight in EBM medium (Clonetics) with 0.5% FBS, and then treated in EBM without FBS for 6 hr with the following lysolipids:
# Supematants were collected and IL-8 levels were deternined using ELISA as described previously.
Structure (SMILES),Increase in intracellular calcium (human EDG-3) [nM],Qualitative calcium response (EDG-7 [1]),"Increase in IL-8 release compared to untreated cells (rat edg4 [2]; COS-1 cells transfected with EDG-4 expression plasmid, 5 μm, overnight) [fold]","PTX sensitivity of IL-8 response (rat edg4 [2]; EDG-4 transfected COS-1 cells, PTX 50 ng/ml)",Increase in luciferase activity (SRE reporter) (EDG-1 [3]) [fold],NF-κB reporter signaling (EDG-7 [4]),Cell viability 24 hr after treatment (HeLa cells),IL-8 release (HL-60 cells [5]),Qualitative calcium response (EDG-1 [6]),Concentration at which toxicity begins (HL-60 cells [7]) [µM],IL-8 production (293-EBNA cells),Induction of luciferase activity (SRE reporter) (rat edg4 [8]) [fold],IL-8 response (qualitative) [9]
"CCCCCCCCCCCCC/C=C/[C@@H](O)[C@@H](N)COP(=O)(O)O [S1P, sphingosine-1-phosphate]",300,None within 20 min,2,pertussis toxin sensitive,8,fail to signal through NF-κB reporters,No loss of HeLa viability,no such release; also recorded: fail to produce IL-8,None within 20 min,10,no IL-8 production,–,–
"CCCCCCCCCCCCC/C=C/[C@@H](O)[C@@H](N)COP(=O)([O-])OCC[N+](C)(C)C [SPC, sphingosylphosphorylcholine]",–,–,–,–,–,–,–,–,–,–,–,35.6,Marginal increases
